Source: US8158589B2, “Peptides with the capacity to bind to transforming growth factor β1 (TGF-β1)” (Proyecto Biomedicine Cima, S.L., priority 2003, dated 2012)
Ends that are not written are not given here.

Experiments:
[1] = target: T1, TGF-β1 (Mus musculus, UniProt P04202); assay: Model of acute liver damage induced by CCl4, type I collagen mRNA by real time PCR; assay type: in vivo, mice
T1 construct: from tissue; host or cells: liver of Balb/C mice (CCl4 model); lung of C57BL/6 mice (bleomycin model)
Protocol: Acute liver damage generates a cascade of effects and physiological responses, including elevations in the concentrations of TGF-β1. This elevation is responsible for the expression of the type I collagen gene, among others. In this model of acute liver damage, female Balb/C mice weighing 25 to 30 g, were orally administered a dose of 2 μl of CCl4 (per gram of body weight) dissolved in an equivalent volume of corn oil (volumetric ratio of 1:1). The control group received an equivalent volume of corn oil only, and the treated groups received (following the single oral administration of CCl4 in corn oil) 50 μg of peptide in 500 μl of 1% physiological saline solution in DMSO (dimethyl sulfoxide) every 24 h. After 72 hours all animals were sacrificed, and the liver samples were processed. To evaluate mRNA expression, liver tissue was frozen in liquid nitrogen and stored at −80° C. until further use. Other liver tissue samples were stored in OCT® or Tissue-Tek® (Sakura Finetek B.V.) and processed in the same way as the samples used for mRNA studies. Other liver samples were fixed in 10% buffered formalin solution, embedded in paraffin and processed for their histological evaluation. The amount of mRNA encoding type I collagen was quantified in all groups using a quantitative polymerase chain reaction (PCR) technique. […] The capacity of the testing peptides to block the acute damage, as assessed by measuring the levels of induced type I collagen mRNA was quantified by real time PCR. […] The peptides tested were obtained by conventional solid peptide synthesis procedures (Merrifield R B. J Am Chem Soc 1963; 85:2149-2154; Atherton E et al. J Chem Soc Perkin Trans 1981; 1:538-546).

[2] = target: T2, TGF-β1 (Rattus norvegicus, UniProt P17246); assay: Corneal fibrosis and haze after 1 N NaOH damage, topical eye drops, photographs analysed with ImageJ; assay type: in vivo, Long-Evans rats
T2 construct: from tissue; host or cells: cornea of Long-Evans rats
Description: Male Long-Evans rats aged 10 weeks were used, divided into 5 groups: • Group 1: 12 rats, 6 treated with dexamethasone and 6 treated with mitomycin C • Group 2: 12 rats, 6 treated with p17 of the first formulation (see section 6.1.2.b) and 6 treated with p144 of the first formulation (see section 6.1.2.b) • Group 3: 12 rats, 6 treated with p17 of the second formulation (see section 6.1.2.b) and 6 treated with p144 of the second formulation (see section 6.1.2.b) • Group 4: 12 rats, 6 treated with p17 of the third formulation (see section 6.1.2.b) and 6 treated with p144 of the third formulation (see section 6.1.2.b) • Group 5: 12 rats, 6 treated with p17 of the fourth formulation (see section 6.1.2.b) and 6 treated with p144 of the fourth formulation (see section 6.1.2.b) • Group 6: 12 rats, 6 treated with p17 of the fifth formulation (see section 6.1.2.b) and 6 treated with p144 of the fifth formulation (see section 6.1.2.b)
To perform the damage in the cornea, the animals were anesthetized with isoflurane and a 5 mm Whatman paper disc impregnated in 1 N NaOH for 30 seconds was applied to them in the central part of the eye. After the damage, they were washed with abundant physiological saline serum and an antibiotic ointment was applied to them to prevent possible infections in the affected area.
After conducting several in vivo studies with the previously described groups of animals, it could be concluded that the chemical damage occurring after the application of NaOH for 30 seconds caused an excessive lesion for the study which was to be conducted, therefore it was decided to conduct new experiments reducing the time to 15 seconds.
It was randomly established that the left eye of each animal would act as a control and that the right eye would be the treated eye, such that the same animals acts as a control in addition to being treated. It must be pointed out that all the animals received antibiotic treatment in both eyes daily only during the first week of the study for the purposes of avoiding microbial keratitis.
Starting from 0.15% sodium hyaluronate (Hyabak 10 mL, Thea) without preservatives: • p144: 20 mg were dissolved in 5 ml of eye drops, 40 μl of saturated concentrated NaOH were incorporated, stirring and adding in portions of 5 μl. It was sonicated until solubilization. To adjust the pH, 500 μl of 1M Hepes were added, such that the pH changed from 10.5 to 7 • p144 control: 40 μl of saturated NaOH and 500 μl of 1 M HEPES (final concentration of HEPES 50 mM) • p17: 20 mg were dissolved in 5 ml of the eye drops, it was sonicated until complete solubilization and it was incorporated to the vial with a 10 ml syringe and a blue needle to perforate the filter of the contained (final concentration 2 mg/ml) • p17 control: non-manipulated eye drops • Note: The formulations were maintained at 4° C. throughout the study.
The administration of the treatment was initiated twenty-four hours after the damage. After that time a follow-up of the damage was performed, which consisted of taking photographs at days 0, 7, 14, 21, 28 and 35. To take the photographs the animals were anesthetized with isoflurane. Photographs were taken of both the control eye (left) and of the treated eye (right) with and without fluorescein. The photographs with fluorescein allowed to observe the evolution of the epithelial closure of the generated lesion, whereas the photographs without fluorescein show the evolution of the haze of the lesioned area. […]

[3] = target: T3, TGF-β1 (Homo sapiens, UniProt P01137); assay: Western Blot of p-Smad2, Smad2/3 and Smad7 in primary culture of rabbit corneal fibroblasts; assay type: cell-based; set-up: host or cells: added to a primary culture of rabbit corneal fibroblasts
Protocol: (§1) Therefore, Western Blot and immunofluorescence studies were conducted to determine, from cells extracted from the in vivo studies, the signaling pathway used by the peptides administered topically. It should be emphasized that said studies were conducted on fibroblasts from rabbit cornea and not from rat cornea. This decision was made due to the difficulty entailed in isolating fibroblasts from rodent eyes.
Since the scientific literature repeatedly describes the TGF-β1 signaling pathways, the decision was made to go into depth in such pathways by means of the techniques described in the methodology section. Said pathways involve the study of the Smad protein family, specifically the study of the isoforms Smad2, 2/3 and 7.
To that end, protein extracts obtained from the primary culture of rabbit fibroblasts were treated with TGF-β1 at concentrations of 0, 3 and 5 ng/ml and, 50 and 200 μg/ml of peptide p17 and p144.

[4] = target: T3, TGF-β1; assay: Immunofluorescence of p-Smad2 translocation to the nucleus in rabbit corneal fibroblasts; assay type: cell-based; set-up: host or cells: added to a primary culture of rabbit corneal fibroblasts; details: TGF-β1 treated rabbit corneal fibroblasts
Protocol: as §1

[5] = fifth formulation eye drops, treated right eye vs control left eye
[6] = primary culture, TGF-β1 and peptide

T2 sequence (P17246 279-390 limits assumed): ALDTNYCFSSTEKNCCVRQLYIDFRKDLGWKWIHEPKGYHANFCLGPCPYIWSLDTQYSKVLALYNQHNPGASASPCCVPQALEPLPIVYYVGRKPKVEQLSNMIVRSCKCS
T3 sequence (P01137 279-390 limits assumed, species assumed): as the sequence (P17246 279-390 limits assumed) above, with S75A counted along it
T1 sequence (P04202 279-390 limits assumed): as the sequence (P17246 279-390 limits assumed) above

expression of p-Smad2 ([3]; peptide 50 μg/ml) | expression of p-Smad2 ([3]; peptide 200 μg/ml) | expression of Smad 2/3 [3, 6] | expression of Smad 7 [3, 6] | translocation of p-Smad2 to the nucleus [4] | Compound | % Inhibition of type I collagen mRNA induction (in vivo TGF-β1 biological activity) ([1]; Balb/C mice, oral CCl4, 50 μg of peptide every 24 h, sacrifice after 72 hours) | inhibition of the biological activity of TGF-β1 in vivo (in words) ([1]; acute liver damage, type I collagen mRNA) | corneal haze [2, 5] | epithelial closure (fluorescein) [2, 5] | clinical efficacy in the treatment of corneal fibrosis ([2]; first experiment, Group 1)
slight inhibition | reaching the values of the controls | not affected | not modified | inhibited | TSLDASIIWAMMQN [P144] | −3.51 ± 36% | does not show any activity | clear decrease | clear decrease | –
– | – | – | – | – | CO[C@@]12[C@H](COC(N)=O)C3=C(C(=O)C(C)=C(N)C3=O)N1C[C@@H]1N[C@@H]12 [mitomycin C] | – | – | – | – | correspond to those described in the scientific literature
